Data reported in ChEMBL document CHEMBL1138740, “Design of 2,5-dimethyl-3-(6-dimethyl-4-methylpyridin-3-yl)-7-dipropylaminopyrazolo[1,5-a]pyrimidine (NBI 30775/R121919) and structure--activity relationships of a series of potent and orally active corticotropin-releasing factor receptor antagonists” (J Med Chem, 2004).

Columns and labels:
[1] = molecular target: T1, Corticotropin-releasing factor receptor 1 (Homo sapiens, UniProt P34998); experiment: Inhibition of CRF-stimulated cAMP production in CHO cells expressing human CRF1 receptor
T1 sequence (P34998 whole entry): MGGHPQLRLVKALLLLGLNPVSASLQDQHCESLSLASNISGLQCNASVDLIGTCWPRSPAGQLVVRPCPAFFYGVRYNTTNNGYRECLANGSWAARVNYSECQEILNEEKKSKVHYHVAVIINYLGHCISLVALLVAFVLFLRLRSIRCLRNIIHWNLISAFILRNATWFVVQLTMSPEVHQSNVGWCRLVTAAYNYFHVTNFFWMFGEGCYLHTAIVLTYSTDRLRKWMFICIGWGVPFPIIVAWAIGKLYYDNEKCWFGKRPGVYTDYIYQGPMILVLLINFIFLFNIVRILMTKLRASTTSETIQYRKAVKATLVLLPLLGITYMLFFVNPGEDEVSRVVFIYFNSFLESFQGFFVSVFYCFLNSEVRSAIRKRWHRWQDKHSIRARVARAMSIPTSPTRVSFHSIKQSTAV

[2] = molecular target: T1, Corticotropin-releasing factor receptor 1; experiment: Inhibition of [125I]o-CRF binding to CHO cells expressing human CRF1 receptor; type: cell-based
[3] = Plasma volume distribution determined in dawley rats; type: ADME, organism-based; conditions: Sprague-Dawley, rat
[4] = Plasma half-life determined in dawley rats; type: ADME; conditions: Sprague-Dawley, rat
[5] = Plasma clearance determined in dawley rats; type: ADME, organism-based; conditions: Sprague-Dawley, rat

Row | SMILES | Ki [2] [nM] | other results
1 | CCCN(CCOC)c1cc(C)nc2c(-c3ccc(OC)cc3OC)c(C)nn12 | – | IC50 [1]: 76 nM
2 | CCCCN(CC)c1cc(C)nc2c(-c3cnc(N(C)C)cc3C)c(C)nn12 | 2.6 | –
3 | CCC(COC)Nc1cc(C)nc2c(-c3cnc(N(C)C)cc3C)c(C)nn12 (stereo not given) | 260 | –
4 | CCCN(CCC)c1c(Cl)c(C)nc2c(-c3cnc(N(C)C)cc3C)c(C)nn12 | 39 | –
5 | CCCN(c1ccccc1)c1cc(C)nc2c(-c3cnc(N(C)C)cc3C)c(C)nn12 | 8.8 | –
6 | CCCN(CCC)c1cc(C)nc2c(-c3ncc(N(C)C)cc3C)c(C)nn12 | – | IC50 [1]: 160 nM
7 | CCN(Cc1cccc(C)c1)c1cc(C)nc2c(-c3cnc(N(C)C)cc3C)c(C)nn12 | 2.4 | –
8 | CCN(Cc1ccc(Cl)c(Cl)c1)c1cc(C)nc2c(-c3cnc(N(C)C)cc3C)c(C)nn12 | 2.5 | –
9 | CCN(Cc1ccc(C)cc1)c1cc(C)nc2c(-c3cnc(N(C)C)cc3C)c(C)nn12 | 2.3 | –
10 | CCN(Cc1ccccc1F)c1cc(C)nc2c(-c3cnc(N(C)C)cc3C)c(C)nn12 | 3.4 | –
11 | CCC(CC)Nc1cc(C)nc2c(-c3cnc(N(C)C)cc3C)c(C)nn12 | 9.4 | –
12 | CCCN(CCC)c1cc(C)nc2c(-c3c(C)cc(N(C)C)nc3C)c(C)nn12 | 5.2 | IC50 [1]: 40 nM
13 | CCCCN(Cc1ccccc1)c1cc(C)nc2c(-c3cnc(N(C)C)cc3C)c(C)nn12 | 2.9 | –
14 | CCCC(CCC)Nc1cc(C)nc2c(-c3cnc(N(C)C)cc3C)c(C)nn12 | 4.8 | –
15 | CCCN(CCC)c1cc(C)nc2c(-c3ccc(N(C)C)nc3)c(C)nn12 | 4.2 | IC50 [1]: 110 nM
16 | Cc1cc(NC(C)CCC(C)C)n2nc(C)c(-c3cnc(N(C)C)cc3C)c2n1 (stereo not given) | 13 | –
17 | CCCN(CC1CC1)c1cc(C)nc2c(-c3cnc(N(C)C)cc3C)c(C)nn12 | 2.6 | –

Row | SMILES | Ki [2] [nM] | other results
18 | CCCN(CCC)c1cc(C)nc2c(-c3cnc(N(C)C)cc3C)c(C)nn12 | – | Vd [3]: 16.7 L/kg; half-life [4]: 1.7 h; clearance [5]: 112 mL/min/kg
19 | CCCN(CCC)c1cc(C)nc2c(-c3cnc(C)cc3C)c(C)nn12 | 7.3 | –
20 | CCCCN(CCCC)c1cc(C)nc2c(-c3cnc(N(C)C)cc3C)c(C)nn12 | 4.2 | –
21 | CCN(Cc1ccccc1C)c1cc(C)nc2c(-c3cnc(N(C)C)cc3C)c(C)nn12 | 2.4 | –
22 | COCC(Cc1ccccc1)Nc1cc(C)nc2c(-c3cnc(N(C)C)cc3C)c(C)nn12 (stereo not given) | 6.5 | –
23 | CCCN(CCC)c1cc(C)nc2c(-c3ccc(C)nc3)c(C)nn12 | 21 | –
24 | CCCN(Cc1ccc2ccccc2c1)c1cc(C)nc2c(-c3cnc(N(C)C)cc3C)c(C)nn12 | 15 | –
25 | CCCN(CCC)c1c(Br)c(C)nc2c(-c3cnc(N(C)C)cc3C)c(C)nn12 | 240 | –
26 | CCCN(Cc1cccc(OC)c1)c1cc(C)nc2c(-c3cnc(N(C)C)cc3C)c(C)nn12 | 24 | –
27 | CCN(Cc1ccc(Cl)cc1)c1cc(C)nc2c(-c3cnc(N(C)C)cc3C)c(C)nn12 | 1.3 | –
28 | CCCN(Cc1ccccc1)c1cc(C)nc2c(-c3cnc(N(C)C)cc3C)c(C)nn12 | 5.2 | –
29 | Cc1cc(N(Cc2ccccc2)C(C)C)n2nc(C)c(-c3cnc(N(C)C)cc3C)c2n1 | 11 | –
30 | CCCN(CCC)c1cc(C)nc2c(-c3ccc(N(C)C)nc3C)c(C)nn12 | 2.2 | IC50 [1]: 190 nM
31 | Cc1cc(NC(C)C(C)C)n2nc(C)c(-c3cnc(N(C)C)cc3C)c2n1 (stereo not given) | 17 | –
32 | CCCN(CCC)c1c(F)c(C)nc2c(-c3cnc(N(C)C)cc3C)c(C)nn12 | 5.6 | IC50 [1]: 50 nM
33 | CCCN(CC1CC1)c1cc(C)nc2c(-c3ccc(Cl)cc3Cl)c(C)nn12 | 1.6 | IC50 [1]: 29 nM
